# Literature values in publication PMC8583936, “Machine Learning Assisted Approach for Finding Novel High Activity Agonists of Human Ectopic Olfactory Receptors” (International Journal of Molecular Sciences, 2021).
# Read-outs that look alike come from different tables or passages of the source.
# Columns and labels:
# OR1A1 = target: T1, OR1A1 (Homo sapiens, UniProt Q9P1Q5); details: cited from earlier work
# T1 sequence (Q9P1Q5 1-309): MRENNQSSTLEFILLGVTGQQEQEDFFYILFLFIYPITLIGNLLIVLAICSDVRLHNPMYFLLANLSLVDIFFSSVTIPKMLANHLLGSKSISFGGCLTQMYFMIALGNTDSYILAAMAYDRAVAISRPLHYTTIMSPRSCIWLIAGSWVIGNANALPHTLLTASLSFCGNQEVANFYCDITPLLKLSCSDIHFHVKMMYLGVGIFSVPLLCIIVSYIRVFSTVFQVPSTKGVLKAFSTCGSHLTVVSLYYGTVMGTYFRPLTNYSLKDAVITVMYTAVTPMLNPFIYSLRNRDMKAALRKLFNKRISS
# OR2W1 = target: T2, OR2W1 (Homo sapiens, UniProt Q9Y3N9); details: cited from earlier work
# T2 sequence (Q9Y3N9 1-320): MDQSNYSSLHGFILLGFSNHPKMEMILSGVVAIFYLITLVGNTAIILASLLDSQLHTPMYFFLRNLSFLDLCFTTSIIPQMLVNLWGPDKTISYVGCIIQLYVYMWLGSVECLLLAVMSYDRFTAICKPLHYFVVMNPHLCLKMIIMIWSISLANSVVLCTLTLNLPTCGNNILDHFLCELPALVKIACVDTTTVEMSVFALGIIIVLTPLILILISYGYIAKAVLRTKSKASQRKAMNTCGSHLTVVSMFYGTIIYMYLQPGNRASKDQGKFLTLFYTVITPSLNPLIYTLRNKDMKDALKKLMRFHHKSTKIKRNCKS
# [1] = Table S1, ref Supplement references [1]-[9] as printed after each odorant name
# [2] = Table S2, ref Supplement references [2]-[12] as printed after each odorant name
molecule,measurement,setting,value
O=C(O)CCCCC(=O)O [Adipic acid],Class (agonist / non-agonist / conflicting info.) for OR1A1,OR1A1; [1],Non-agonist
"CC/C=C/CC/C=C/C=O [E,E-26-nonadienal]",Class (agonist / non-agonist / conflicting info.) for OR1A1,OR1A1; [1],Non-agonist
CC1COCc2cc3c(cc21)C(C)(C)C(C)C3(C)C (stereo not drawn) [Galaxolide],Class (agonist / non-agonist / conflicting info.) for OR1A1,OR1A1; [1],Non-agonist
CC(C)=CCC/C(C)=C\CO [Nerol],Class (agonist / non-agonist / conflicting info.) for OR1A1,OR1A1; [1],Agonist
CC(C)=CCC/C(C)=C/CC/C(C)=C/CO [Farnesol],Class (agonist / non-agonist / conflicting info.) for OR1A1,OR1A1; [1],Non-agonist
"CC(=O)CC(=O)CC(C)C [6-Methyl-2,4-heptanedione]",Class (agonist / non-agonist / antagonist / conflicting info.) for OR2W1,OR2W1; [2],Agonist
O=C(O)CCC(=O)O [Succinic acid],Class (agonist / non-agonist / conflicting info.) for OR1A1,OR1A1; [1],Non-agonist
O=C1CCCCCCCCC/C=C/CCCO1 [Habanolide],Class (agonist / non-agonist / conflicting info.) for OR1A1,OR1A1; [1],Non-agonist
"CCc1nccnc1CC [2,3-diethyl pyrazine]",Class (agonist / non-agonist / conflicting info.) for OR1A1,OR1A1; [1],Conflicting info.
C=CC(=C)CC/C=C(\C)CCC=C(C)C [Trans-beta-farnesene],Class (agonist / non-agonist / conflicting info.) for OR1A1,OR1A1; [1],Non-agonist
CC(C)=CCCC(C)=CC#N [Citralva],Class (agonist / non-agonist / conflicting info.) for OR1A1,OR1A1,Non-agonist
"Cc1nccnc1C [2,3-dimethylpyrazine]",Class (agonist / non-agonist / conflicting info.) for OR1A1,OR1A1,Non-agonist
CC(=O)c1cc(C(C)(C)C)cc2c1CCC2(C)C [Celestolide],Class (agonist / non-agonist / conflicting info.) for OR1A1,OR1A1; [1],Agonist
CC1C(C)(C)C2=C(C(=O)CCC2)C1(C)C (stereo not drawn) [Cashmeran],Class (agonist / non-agonist / conflicting info.) for OR1A1,OR1A1; [1],Non-agonist
CC(C)=CCCC(C)CC(=O)O (stereo not drawn) [Citronellic acid],Class (agonist / non-agonist / conflicting info.) for OR1A1,OR1A1; [1],Non-agonist
CCc1cnccn1 [2-ethylpyrazine],Class (agonist / non-agonist / conflicting info.) for OR1A1,OR1A1,Non-agonist
CCCCCC=CCCC=O [4-decenal],Class (agonist / non-agonist / conflicting info.) for OR1A1,OR1A1; [1],Agonist
CCCC(Br)C(=O)O (stereo not drawn) [2-bromovaleric acid],Class (agonist / non-agonist / conflicting info.) for OR1A1,OR1A1; [1],Non-agonist
CC/C=C\CCCCCC=O [Z-7-decanal],Class (agonist / non-agonist / conflicting info.) for OR1A1,OR1A1; [1],Agonist
CC(C)=CCC/C(C)=C\COC(=O)C(C)C [Neryl isobutyrate],Class (agonist / non-agonist / conflicting info.) for OR1A1,OR1A1,Non-agonist
"CCCCCCC/C=C/C=C/C=O [E,E-2,4-dodecadienal]",Class (agonist / non-agonist / conflicting info.) for OR1A1,OR1A1; [1],Non-agonist
CCCCCS [Pentane-1-thiol],Class (agonist / non-agonist / antagonist / conflicting info.) for OR2W1,OR2W1; [2],Agonist
CCCCCCCC(=O)OCCC(C)C [Isoamyl octanoate],Class (agonist / non-agonist / conflicting info.) for OR1A1,OR1A1; [1],Non-agonist
CC1C/C=C/CCCCCCCCC(=O)C1 (stereo not drawn) [Cosmone],Class (agonist / non-agonist / conflicting info.) for OR1A1,OR1A1; [1],Agonist
CCCCC(Br)C(=O)O (stereo not drawn) [2-bromohexanoic acid],Class (agonist / non-agonist / conflicting info.) for OR1A1,OR1A1,Non-agonist
CCCCCCCC(=O)OCCc1ccccc1 [Phenethyl octanoate],Class (agonist / non-agonist / conflicting info.) for OR1A1,OR1A1; [1],Non-agonist
O=C1CCCCCC/C=C\CCCCCCC1 [Globanone],Class (agonist / non-agonist / conflicting info.) for OR1A1,OR1A1; [1],Non-agonist
Cc1ccc(C(C)C)c(O)c1 [Thymol],Class (agonist / non-agonist / conflicting info.) for OR1A1,OR1A1,Conflicting info.
O=C1CCCCCCCCCCCCCC1 [Cyclopentadecanone],Class (agonist / non-agonist / conflicting info.) for OR1A1,OR1A1,Non-agonist
Farnesene,Class (agonist / non-agonist / conflicting info.) for OR1A1,OR1A1; [1],Non-agonist
C1CCCCCCCCCCCCCC1 [Cyclopentadecane],Class (agonist / non-agonist / conflicting info.) for OR1A1,OR1A1; [1],Non-agonist
c1cnccn1 [Pyrazine],Class (agonist / non-agonist / conflicting info.) for OR1A1,OR1A1; [1],Conflicting info.
CC(C)(C)c1ccc(CCC=O)cc1 [Bourgeonal],Class (agonist / non-agonist / conflicting info.) for OR1A1,OR1A1; [1],Conflicting info.
CCCCCCCCCCCCCC(C)=O [2-pentadecanone],Class (agonist / non-agonist / conflicting info.) for OR1A1,OR1A1; [1],Non-agonist
CCCCCCCCCCC=O [Undecanal],Class (agonist / non-agonist / conflicting info.) for OR1A1,OR1A1; [1],Non-agonist
CCCCCCCC(=O)OC [Methyl octanoate],Class (agonist / non-agonist / conflicting info.) for OR1A1,OR1A1; [1],Non-agonist
(S)-(-)-citronellal,Class (agonist / non-agonist / conflicting info.) for OR1A1,OR1A1,Agonist
OC1CCCCCCCCCCCCCC1 [Cyclopentadecanol],Class (agonist / non-agonist / conflicting info.) for OR1A1,OR1A1; [1],Non-agonist
CCC(=O)c1ccccc1 [Propiophenone],Class (agonist / non-agonist / conflicting info.) for OR1A1,OR1A1,Agonist
O=C(O)/C=C(\CC(=O)O)C(=O)O [Trans-Aconitic acid],Class (agonist / non-agonist / conflicting info.) for OR1A1,OR1A1,Non-agonist
"Cc1cnc(C)cn1 [2,5 dimethyl pyrazine]",Class (agonist / non-agonist / conflicting info.) for OR1A1,OR1A1; [1],Non-agonist
CCC(Br)C(=O)O (stereo not drawn) [Bromobutyric acid],Class (agonist / non-agonist / conflicting info.) for OR1A1,OR1A1; [1],Non-agonist
C/C=C/c1ccc(OC)c(OC)c1 [Methyl isoeugenol],Class (agonist / non-agonist / conflicting info.) for OR1A1,OR1A1,Agonist
Ambrettolide,Class (agonist / non-agonist / conflicting info.) for OR1A1,OR1A1; [1],Non-agonist
CCCCCCCS [Heptane-1-thiol],Class (agonist / non-agonist / antagonist / conflicting info.) for OR2W1,OR2W1; [2],Agonist
CC(C)=CCC[C@@H](C)CCO [(R)-(+)-citronellol],Class (agonist / non-agonist / conflicting info.) for OR1A1,OR1A1,Agonist
C=CC(C)(O)CCC=C(C)CCC=C(C)C (mixture of isomers) [Nerolidol],Class (agonist / non-agonist / conflicting info.) for OR1A1,OR1A1; [1],Agonist
CC1(C)[C@H]2CC=C(C=O)[C@@H]1C2 [(R)-(-)-myrtenal],Class (agonist / non-agonist / conflicting info.) for OR1A1,OR1A1; [1],Non-agonist
Cc1cnccn1 [2-methylpyrazine],Class (agonist / non-agonist / conflicting info.) for OR1A1,OR1A1; [1],Non-agonist
COc1ccc(C)cc1 [4-methylanisole],Class (agonist / non-agonist / conflicting info.) for OR1A1,OR1A1,Non-agonist
"CCCCC(=O)CC(C)=O [2,4-octanedione]",Class (agonist / non-agonist / antagonist / conflicting info.) for OR2W1,OR2W1; [2],Agonist
CC(=O)c1cc2c(cc1C)C(C)(C)C(C)CC2(C)C (stereo not drawn) [Tonalide],Class (agonist / non-agonist / conflicting info.) for OR1A1,OR1A1,Non-agonist
CCCCCCCC(=O)CCCCCCC [8-pentadecanone],Class (agonist / non-agonist / conflicting info.) for OR1A1,OR1A1; [1],Non-agonist
CCc1ccccc1O [2-ethylphenol],Class (agonist / non-agonist / conflicting info.) for OR1A1,OR1A1; [1],Agonist
CC(C)CS [Isobutyl mercaptan],Class (agonist / non-agonist / conflicting info.) for OR1A1,OR1A1; [1],Non-agonist
CCCCCCCCC=O [Nonanal],Class (agonist / non-agonist / conflicting info.) for OR1A1,OR1A1; [1],Conflicting info.
O=C1CCCCCCCCCCCCCCO1 [Exaltolide],Class (agonist / non-agonist / conflicting info.) for OR1A1,OR1A1; [1],Non-agonist
"C=C(C)C1CC=C(C)[C@@H](O)C1 (single isomer, unassigned; (-)) [(-)-Carveol]",Class (agonist / non-agonist / conflicting info.) for OR1A1,OR1A1; [1],Agonist
"CC(C)C12CCC(C)(CC1)O2 [1,4-cineole]",Class (agonist / non-agonist / conflicting info.) for OR1A1,OR1A1; [1],Non-agonist
CC(=O)c1c(C)c([N+](=O)[O-])c(C(C)(C)C)c([N+](=O)[O-])c1C [Musk ketone],Class (agonist / non-agonist / conflicting info.) for OR1A1,OR1A1,Non-agonist
CCCCC/C=C/CCC=O [E-4-decanal],Class (agonist / non-agonist / conflicting info.) for OR1A1,OR1A1; [1],Agonist
C[C@@H]1CCCCCCCCCCCCC(=O)C1 [Muscone],Class (agonist / non-agonist / conflicting info.) for OR1A1,OR1A1; [1],Conflicting info.
CCC(=O)OCC(C)(C)OC(C)C1CCCC(C)(C)C1 (stereo not drawn) [Helvetolide],Class (agonist / non-agonist / conflicting info.) for OR1A1,OR1A1; [1],Non-agonist
COc1ccccc1 [Anisole],Class (agonist / non-agonist / conflicting info.) for OR1A1,OR1A1; [1],Non-agonist
O=C1CCCCCCCCCC1 [Cycloundecanone],Class (agonist / non-agonist / conflicting info.) for OR1A1,OR1A1; [1],Non-agonist
CCCC(C)C=O (stereo not drawn) [Methyl pentanal],Class (agonist / non-agonist / conflicting info.) for OR1A1,OR1A1; [1],Non-agonist
c1ccc2[nH]ccc2c1 [Indole],Class (agonist / non-agonist / conflicting info.) for OR1A1,OR1A1,Non-agonist
CCCCCCC(Br)C(=O)O (stereo not drawn) [2-bromo octanoic acid],Class (agonist / non-agonist / conflicting info.) for OR1A1,OR1A1; [1],Non-agonist
CC(=O)OC/C=C(/C)CCC=C(C)C [Nerylacetate],Class (agonist / non-agonist / conflicting info.) for OR1A1,OR1A1; [1],Non-agonist
(+)-Menthone,Class (agonist / non-agonist / conflicting info.) for OR1A1,OR1A1,Agonist
C1CCNC1 [Pyrrolidine],Class (agonist / non-agonist / conflicting info.) for OR1A1,OR1A1; [1],Non-agonist
CN(C)C [Trimethylamine],Class (agonist / non-agonist / conflicting info.) for OR1A1,OR1A1,Non-agonist
CCC(=O)OC [Methyl propionate],Class (agonist / non-agonist / conflicting info.) for OR1A1,OR1A1,Non-agonist
COC(OC)c1ccccc1 [Benzaldehyde dimethyl acetal],Class (agonist / non-agonist / conflicting info.) for OR1A1,OR1A1,Non-agonist
"OCCCCCCCCCO [1,9 nonanediol]",Class (agonist / non-agonist / conflicting info.) for OR1A1,OR1A1; [1],Non-agonist
O=C1CCCCCCCCC1 [Cyclodecanone],Class (agonist / non-agonist / conflicting info.) for OR1A1,OR1A1; [1],Non-agonist
"ClC=CCl [1,2-dichlorethylene]",Class (agonist / non-agonist / conflicting info.) for OR1A1,OR1A1; [1],Non-agonist
C=CC(O)CCCCC (stereo not drawn) [1-octen-3-ol],Class (agonist / non-agonist / conflicting info.) for OR1A1,OR1A1,Non-agonist
CC(C)=CCC[C@@H](C)CC=O [Citronellal],Class (agonist / non-agonist / antagonist / conflicting info.) for OR2W1,OR2W1,Agonist
COc1cnccn1 [2-methoxypyrazine],Class (agonist / non-agonist / conflicting info.) for OR1A1,OR1A1; [1],Non-agonist
CCCCS [Butane thiol],Class (agonist / non-agonist / conflicting info.) for OR1A1,OR1A1; [1],Non-agonist
CC(=O)CCc1ccc(O)cc1 [Raspberry ketone],Class (agonist / non-agonist / conflicting info.) for OR1A1,OR1A1,Non-agonist
"C=C(C)C1CC=C(C)C(OC(C)=O)C1 (single isomer, unassigned; (-)) [(-)Carvyl acetate mix]",Class (agonist / non-agonist / conflicting info.) for OR1A1,OR1A1; [1],Non-agonist
Oc1ccccc1 [Phenol],Class (agonist / non-agonist / conflicting info.) for OR1A1,OR1A1,Non-agonist
